Consider 16 molecules from patent publication US20230053607A1, “PESTICIDALLY ACTIVE FUSED BICYCLIC HETEROAROMATIC AMINO COMPOUNDS” (SYNGENTA CROP PROTECTION AG, priority 2019, published 2023).

Where only a bound is given, the exact number is not on record here.

For one data set, the system named is Diabrotica balteata. The data set is described as follows: Diabrotica balteata (corn root worm), maize sprouts sprayed, L2 larvae. In kind it is in vivo. The conditions noted are these: 96 h, application rate 200 ppm, 4 days after infestation, read-out: control in at least one of the categories (mortality or growth inhibition). The procedure:
Maize sprouts placed onto an agar layer in 24-well microtiter plates were treated with aqueous test solutions prepared from 10′000 ppm DMSO stock solutions by spraying. After drying, the plates were infested with L2 larvae (6 to 10 per well). The samples were assessed for mortality and growth inhibition in comparison to untreated samples 4 days after infestation. The following compounds gave an effect of at least 80% control in at least one of the categories (mortality or growth inhibition) at an application rate of 200 ppm: P1, P2, P3, P6, P7, P8, P10.

For a further data set, the system named is Spodoptera littoralis. In words: Spodoptera littoralis (Egyptian cotton leaf worm), cotton leaf discs sprayed, L1 larvae. As to conditions: foliar, 72 h, application rate 200 ppm, 3 days after infestation, read-out: control in at least one of the categories (mortality, anti-feedant effect or growth inhibition). In kind it is in vivo. The procedure:
Cotton leaf discs were placed onto agar in 24-well microtiter plates and sprayed with aqueous test solutions prepared from 10′000 ppm DMSO stock solutions. After drying the leaf discs were infested with five L1 larvae. The samples were assessed for mortality, anti-feeding effect, and growth inhibition in comparison to untreated samples 3 days after infestation. Control of Spodoptera littoralis by a test sample is given when at least one of the categories mortality, anti-feedant effect, and growth inhibition is higher than the untreated sample.

Data set [1] relates to Plutella xylostella. The data set is described as follows: Plutella xylostella (diamond back moth), 24-well artificial diet, eggs. The format is in vivo. The conditions noted are these: 192 h, application rate 200 ppm, 8 days after infestation, 24-well plates, read-out: control in at least one of the categories (mortality or growth inhibition). The procedure:
24-well microtiter plates with artificial diet were treated with aqueous test solutions prepared from 10′000 ppm DMSO stock solutions by pipetting. After drying, Plutella eggs were pipetted through a plastic stencil onto a gel blotting paper and the plate was closed with it. The samples were assessed for mortality and growth inhibition in comparison to untreated samples 8 days after infestation. The following compounds gave an effect of at least 80% control in at least one of the categories (mortality or growth inhibition) at an application rate of 200 ppm: P1, P2, P3, P7, P10.

A further data set deals with Chilo suppressalis. The data set is described as follows: Chilo suppressalis (striped rice stemborer), artificial diet, L2 larvae. In kind it is in vivo. As to conditions: 144 h, application rate 200 ppm, 6 days after infestation, read-out: control in at least one of the categories (mortality, anti-feedant effect or growth inhibition). As for the experimental part: 24-well microtiter plates with artificial diet were treated with aqueous test solutions prepared from 10′000 ppm DMSO stock solutions by pipetting. After drying, the plates were infested with L2 larvae (6-8 per well). The samples were assessed for mortality, anti-feeding effect, and growth inhibition in comparison to untreated samples 6 days after infestation. Control of Chilo suppressalis by a test sample is given when at least one of the categories mortality, anti-feedant effect, and growth inhibition is higher than the untreated sample.

Data set [2] deals with Plutella xylostella. The data set is described as follows: Plutella xylostella (diamondback moth), 96-well artificial diet, eggs. The format is in vivo. The conditions noted are these: 216 h, application rate 500 ppm, 9 days after infestation, 96-well plates, read-out: control (mortality). The procedure:
96-well microtiter plates containing artificial diet were treated with aqueous test solutions, prepared from 10′000 ppm DMSO stock solutions, by a liquid handling robot. After drying, eggs (˜30 per well) were infested onto a netted lid which was suspended above the diet. The eggs hatch and L1 larvae move down to the diet. The samples were assessed for mortality 9 days after infestation.

The test system of the next data set is Myzus persicae. The data set is described as follows: Myzus persicae (green peach aphid): feeding/contact activity, sunflower leaf discs. The format is in vivo. The conditions noted are these: foliar, 144 h, application rate 200 ppm, 6 days after infestation, mixed ages. As for the experimental part:
Sunflower leaf discs were placed onto agar in a 24-well microtiter plate and sprayed with aqueous test solutions prepared from 10′000 ppm DMSO stock solutions. After drying, the leaf discs were infested with an aphid population of mixed ages. The samples were assessed for mortality 6 days after infestation.

With `CC(Nc1snc2c(C(F)(F)F)cc(C(F)(F)F)cc12)c1ncnn1-c1ncccn1` (centres unmarked) [P1, N-[1-(2-pyrimidin-2-yl-1,2,4-triazol-3-yl)ethyl]-5,7-bis(trifluoromethyl)-2,1-benzothiazol-3-amine], the percent control (mortality or growth inhibition) at 200 ppm in the data set on Diabrotica balteata and in the data set with Plutella xylostella [1] was no less than 80% each time. Besides, the percent control (mortality, anti-feedant effect or growth inhibition) at 200 ppm in the data set with Spodoptera littoralis is no less than 80%.
Take `C[C@H](Nc1snc2c(C(F)(F)F)cc(C(F)(F)F)cc12)c1ncnn1-c1ccc(C#N)cn1` [P2, 6-[5-[(1S)-1-[[5,7-bis(trifluoromethyl)-2,1-benzothiazol-3-yl]amino]ethyl]-1,2,4-triazol-1-yl]pyridine-3-carbonitrile]: the percent control (mortality or growth inhibition) at 200 ppm in the data set with Diabrotica balteata and in the data set on Plutella xylostella [1] was no less than 80% throughout. Further, the percent control (mortality, anti-feedant effect or growth inhibition) at 200 ppm in the data set with Spodoptera littoralis is no less than 80%.
For `CC(c1ncnn1-c1ccc(C#N)cn1)N(C)c1c(C#N)sc2c(C(F)(F)F)cc(C(F)(F)F)cc12` (centres unmarked) [P3, 6-[5-[1-[[2-cyano-5,7-bis(trifluoromethyl)benzothiophen-3-yl]-methyl-amino]ethyl]-1,2,4-triazol-1-yl]pyridine-3-carbonitrile], the percent control (mortality, anti-feedant effect or growth inhibition) at 200 ppm in the data set on Chilo suppressalis was no less than 80%. Moreover, the percent control (mortality or growth inhibition) at 200 ppm in the data set with Diabrotica balteata and in the data set on Plutella xylostella [1] was no less than 80% each time.
`CC(Nc1c(C#N)sc2c(C(F)(F)F)cc(C(F)(F)F)cc12)c1ncnn1-c1ccc(C#N)cn1` (centres unmarked) [P4, 6-[5-[1-[[2-cyano-5,7-bis(trifluoromethyl)benzothiophen-3-yl]amino]ethyl]-1,2,4-triazol-1-yl]pyridine-3-carbonitrile] yielded a melting point of 192 to 194 °C.
In the case of `COC(=O)c1sc2c(C(F)(F)F)cc(C(F)(F)F)cc2c1NC(C)c1ncnn1-c1ccc(C#N)cn1` (centres unmarked) [P5, methyl 3-[1-[2-(5-cyano-2-pyridyl)-1,2,4-triazol-3-yl]ethylamino]-5,7-bis(trifluoromethyl)benzothiophene-2-carboxylate], the melting point fell in the range of 195 to 197 °C.
As to `CC(Nc1nn(C)c2c(C(F)(F)F)cc(C(F)(F)F)cc12)c1ncnn1-c1ncccn1` (centres unmarked) [P6, 1-methyl-N-[1-(2-pyrimidin-2-yl-1,2,4-triazol-3-yl)ethyl]-5,7-bis(trifluoromethyl)indazol-3-amine], the percent control (mortality, anti-feedant effect or growth inhibition) at 200 ppm in the data set with Chilo suppressalis and in the data set on Spodoptera littoralis was no less than 80% in each case. Besides, the percent control (mortality or growth inhibition) at 200 ppm in the data set on Diabrotica balteata is no less than 80%.
Turning to `CC(c1nccnc1-c1ncccn1)N(CC1CC1)c1nn(C)c2c(C(F)(F)F)cc(C(F)(F)F)cc12` (centres unmarked) [P7, N-(cyclopropylmethyl)-1-methyl-N-[1-(3-pyrimidin-2-ylpyrazin-2-yl)ethyl]-5,7-bis(trifluoromethyl)indazol-3-amine], the percent control (mortality, anti-feedant effect or growth inhibition) at 200 ppm with Chilo suppressalis and with Spodoptera littoralis was no less than 80% in each case. Moreover, the percent control (mortality or growth inhibition) at 200 ppm with Diabrotica balteata and with Plutella xylostella [1] was no less than 80% each time.
For the molecule `CC(c1nccnc1-c1ncccn1)N(CC1CC1)c1nn(C)c2c(Cl)cc(C(F)(F)F)cc12` (centres unmarked) [P8, 7-chloro-N-(cyclopropylmethyl)-1-methyl-N-[1-(3-pyrimidin-2-ylpyrazin-2-yl)ethyl]-5-(trifluoromethyl)indazol-3-amine], in the data set on Plutella xylostella [2], the mortality at 500 ppm is no less than 80%. In addition, in the data set with Diabrotica balteata, the percent control (mortality or growth inhibition) at 200 ppm was no less than 80%. Besides, in the data set with Spodoptera littoralis, the percent control (mortality, anti-feedant effect or growth inhibition) at 200 ppm is no less than 80%.
Consider `CC(Nc1noc2c(Cl)cc(C(F)(F)F)cc12)c1nc(Br)nn1-c1ncccn1` (centres unmarked) [P9, N-[1-(5-bromo-2-pyrimidin-2-yl-1,2,4-triazol-3-yl)ethyl]-7-chloro-5-(trifluoromethyl)-1,2-benzoxazol-3-amine], for which the melting point is 160 to 163 °C.
`CC(Nc1nn(C)c2c(C(F)(F)F)cc(C(F)(F)F)cc12)c1nc(Br)nn1-c1ncccn1` (centres unmarked) [P10, N-[1-(5-bromo-2-pyrimidin-2-yl-1,2,4-triazol-3-yl)ethyl]-1-methyl-5,7-bis(trifluoromethyl)indazol-3-amine]: in the data set on Chilo suppressalis, the percent control (mortality, anti-feedant effect or growth inhibition) at 200 ppm is no less than 80%. Also, the mortality at 500 ppm with Plutella xylostella [2] is no less than 80%. The percent control (mortality or growth inhibition) at 200 ppm in the data set on Diabrotica balteata and in the data set with Plutella xylostella [1] was no less than 80% in each case.
On to `CC(Nc1nn(C)c2c(Cl)cc(C(F)(F)F)cc12)c1nc(Br)nn1-c1ncccn1` (centres unmarked) [P11, N-[1-(5-bromo-2-pyrimidin-2-yl-1,2,4-triazol-3-yl)ethyl]-7-chloro-1-methyl-5-(trifluoromethyl)indazol-3-amine], for which the melting point lay within 262 to 264 °C.
On to `CC(Nc1noc2c(F)cc(F)cc12)c1nccnc1-n1ccnn1` (centres unmarked) [P12, 5,7-difluoro-N-[1-[3-(triazol-1-yl)pyrazin-2-yl]ethyl]-1,2-benzoxazol-3-amine], for which the mortality at 200 ppm in the data set on Myzus persicae was no less than 80%.
As to `CC(Nc1noc2c(F)cc(F)cc12)c1nccnc1-n1nccn1` (centres unmarked) [P13, 5,7-difluoro-N-[1-[3-(triazol-2-yl)pyrazin-2-yl]ethyl]-1,2-benzoxazol-3-amine], the melting point was 199 to 201 °C.
Still for that read-out and setting: for `CC(Nc1noc2ccc(Br)cc12)c1ncnn1-c1ccc(C#N)cn1` (centres unmarked) [P16, 6-[5-[1-[(5-bromo-1,2-benzoxazol-3-yl)amino]ethyl]-1,2,4-triazol-1-yl]pyridine-3-carbonitrile] the value was 175 to 177 °C; for `CC(Nc1noc2ccc(Br)cc12)c1ncnn1-c1ncccn1` (centres unmarked) [P17, 5-bromo-N-[1-(2-pyrimidin-2-yl-1,2,4-triazol-3-yl)ethyl]-1,2-benzoxazol-3-amine], 233 to 235 °C.
Turning to `COC(=O)c1cc(Cl)cc2c(N[C@@H](C)c3ncnn3-c3ccc(C#N)cn3)csc12` [P18, methyl 5-chloro-3-[[(1S)-1-[2-(5-cyano-2-pyridyl)-1,2,4-triazol-3-yl]ethyl]amino]benzothiophene-7-carboxylate], the mortality at 500 ppm in the data set on Plutella xylostella [2] was no less than 80%.
